A word on the IC50: it is the concentration needed to halve the response being measured. Low readings indicate inhibition by little substance, high ones a need for much substance. The Ki is the equilibrium dissociation constant of an inhibitor or competing ligand from its target. Lower therefore signals a stronger hold on the target.

Consider one compound from PMC9478638 (Proceedings of the National Academy of Sciences of the …, 2022).

The target in test [1] is T1, Dgt–Gp1.2 complex (Escherichia coli; Escherichia phage T7, UniProt P03780+P15723).
T1 sequence (P15723 1-505): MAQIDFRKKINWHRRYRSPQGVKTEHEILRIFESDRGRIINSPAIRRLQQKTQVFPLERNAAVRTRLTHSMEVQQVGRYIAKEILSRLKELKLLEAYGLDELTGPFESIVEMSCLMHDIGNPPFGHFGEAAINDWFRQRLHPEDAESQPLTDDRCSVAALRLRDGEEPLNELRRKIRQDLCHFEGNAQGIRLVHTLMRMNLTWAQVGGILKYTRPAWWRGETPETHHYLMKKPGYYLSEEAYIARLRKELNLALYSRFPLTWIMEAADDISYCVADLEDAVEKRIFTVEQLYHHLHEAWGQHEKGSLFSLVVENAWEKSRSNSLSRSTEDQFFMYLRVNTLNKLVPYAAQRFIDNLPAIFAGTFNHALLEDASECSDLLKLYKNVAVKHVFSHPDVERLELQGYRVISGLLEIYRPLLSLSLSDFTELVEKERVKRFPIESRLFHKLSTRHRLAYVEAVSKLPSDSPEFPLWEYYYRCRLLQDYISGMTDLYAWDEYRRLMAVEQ
T1 sequence (P03780 2-85): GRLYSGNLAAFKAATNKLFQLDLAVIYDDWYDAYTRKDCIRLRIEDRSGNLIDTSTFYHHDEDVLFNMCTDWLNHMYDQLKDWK
The test can be described thus: PNP/xanthine oxidase coupled dGTPase assay, A297. The format is biochemical.

The target in test [2] is T2, E. coli Dgt (Escherichia coli, UniProt P15723).
T2 sequence (P15723 1-505): T1 sequence (P15723 1-505)
The test can be described thus: PNP/xanthine oxidase coupled dGTPase assay, A297. The format is biochemical.

As to `Nc1nc2c(ncn2[C@@H]2O[C@H](COP(=O)(O)OP(=O)(O)OP(=O)(O)O)[C@@H](O)[C@H]2O)c(=O)[nH]1` [GTP], half-maximal inhibition in test [1] (IC50) was put at 0.31 ± 0.05 µM. In test [2], this compound yielded a Ki of 120 ± 50 µM.
